Data from patent US9695155B2, “Herbicidal substituted pyrimidinyloxy benzene compounds” (E. I. DU PONT DE NEMOURS AND COMPANY, priority 2013, dated 2017).

Assays:
giant foxtail [1] = assay: Test A preemergence; assay type: in vivo, Setaria faberii
Outline: (§1)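 Scoring: eye-based comparison with untreated controls, 0 for no effect through 100 for complete control, at about day 10. Treatments: directed soil spray preemergence; foliar spray postemergence on 2–10 cm plants at the one- to two-leaf stage. Medium: loam soil with sand.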

barnyardgrass [2] = assay: Test A postemergence; assay type: in vivo, Echinochloa crus-galli
Outline: as §1

giant foxtail [3] = assay: Test A postemergence; assay type: in vivo, Setaria faberii
Outline: as §1

morningglory = assay: Test A postemergence; assay type: in vivo, Ipomoea spp.
Outline: as §1

pigweed = assay: Test A postemergence; assay type: in vivo, Amaranthus retroflexus
Outline: as §1

Heteranthera limosa = assay: Test B flooded paddy test; assay type: in vivo; conditions: Flood, 250 g ai/ha; 0 to 100 scale where 0 is no effect and 100 is complete control
Outline: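 Plants at 2-leaf stage; pots flooded to 3 cm above soil and compound applied directly into paddy water, depth held throughout. After 13 to 15 days in greenhouse, visual rating versus controls on 0 (no effect) to 100 (complete control) scale.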

blackgrass = assay: Test C preemergence; assay type: in vivo, Alopecurus myosuroides; conditions: for Blackgrass plant response rating: preemergence
Text: (§2) Seeds of plant species selected from blackgrass (Alopecurus myosuroides), Italian ryegrass (Lolium multiflorum), wheat, winter (winter wheat, Triticum aestivum), galium (catchweed bedstraw, Galium aparine), corn (Zea mays), large (Lg) crabgrass (Digitaria sanguinalis), giant foxtail (Setaria faberii), johnsongrass (Sorghum halepense), lambsquarters (Chenopodium album), morningglory (Ipomoea coccinea), yellow nutsedge (Cyperus esculentus), pigweed (Amaranthus retroflexus), ragweed (common ragweed, Ambrosia elatior), soybean (Glycine max), barnyardgrass (Echinochloa crus-galli), oilseed rape (Brassica napus), waterhemp (common waterhemp, Amaranthus rudis), kochia (Kochia scoparia), wild oat (Avena fatua), surinam grass (Brachiaria decumbens), foxtail, green (green foxtail, Setaria viridis), goosegrass (Eleusine indica), bromegrass, downy (downy bromegrass, Bromus tectorum), nightshade (eastern black nightshade, Solanum ptycanthum), cocklebur (common cocklebur, Xanthium strumarium), cupgrass, woolly (woolly cupgrass, Eriochloa villosa), bermudagrass (Cynodon dactylon), sunflower, (common oilseed sunflower, Helianthus annuus), Russian thistle (Salsola kali), and velvetleaf (Abutilon theophrasti) were planted into a blend of loam soil and sand and treated preemergence with test chemicals formulated in a non-phytotoxic solvent mixture which included a surfactant.
(§3) At the same time, plants selected from these crop and weed species and also barley, winter (winter barley, Hordeum vulgare), windgrass (Apera spica-venti), chickweed (common chickweed, Stellaria media), deadnettle (henbit deadnettle, Lamium amplexicaule), and canarygrass (littleseed canarygrass, Phalaris minor) were planted in pots containing Redi-Earth® planting medium (Scotts Company, 14111 Scottslawn Road, Marysville, Ohio 43041) comprising spaghnum peat moss, vermiculite, wetting agent and starter nutrients and treated with postemergence applications of test chemicals formulated in the same manner. Plants ranged in height from 2 to 18 cm (1- to 4-leaf stage) for postemergence treatments. Treated plants and controls were maintained in a greenhouse for 13 to 15 days, after which time all species were compared to controls and visually evaluated. Plant response ratings, summarized in Table C, are based on a scale of 0 to 100 where 0 is no effect and 100 is complete control. A dash (-) response means no test result.

Italian ryegrass = assay: Test C preemergence; assay type: in vivo, Lolium multiflorum; conditions: for Ryegrass, Italian plant response rating: preemergence
Text: as §2, §3

wheat, winter = assay: Test C preemergence; assay type: in vivo, Triticum aestivum; conditions: for Wheat plant response rating: preemergence
Text: as §2, §3

lambsquarters = assay: Test C preemergence; assay type: in vivo, Chenopodium album; conditions: for Lambsquarters plant response rating: preemergence
Text: as §2, §3

barnyardgrass [4] = assay: Test C preemergence; assay type: in vivo, Echinochloa crus-galli; conditions: for Barnyardgrass plant response rating: preemergence
Text: as §2, §3

velvetleaf = assay: Test C preemergence; assay type: in vivo, Abutilon theophrasti; conditions: for Velvetleaf plant response rating: preemergence
Text: as §2, §3

[5] = 125 g ai/ha, 0 to 100 scale where 0 is no effect and 100 is complete control
[6] = 500 g ai/ha, 0 to 100 scale, 0 no effect, 100 complete control
[7] = 31 g ai/ha, 0 to 100 scale, 0 no effect, 100 complete control
[8] = 125 g ai/ha, 0 to 100 scale, 0 no effect, 100 complete control
[9] = 16 g ai/ha, scale 0 to 100 (0 no effect, 100 complete control)
[10] = 125 g ai/ha, scale 0 (no effect) to 100 (complete control)
[11] = Preemergence, 62 g ai/ha, scale 0 to 100, 0 no effect, 100 complete control

Compound: Clc1cnc(Oc2ccccc2-n2cc(Cl)cn2)nc1 [Compound 3]
- Foxtail, Giant plant response rating (giant foxtail [1]; [5]): 90
- Foxtail, Giant plant response rating (giant foxtail [1]; 500 g ai/ha, 0 to 100 scale, 0 no effect, 100 complete control, approx. 10 days): 100
- Plant response rating, Barnyardgrass (barnyardgrass [2]; [5]): 10
- Plant response rating, Barnyardgrass (barnyardgrass [2]; [6]): 90
- Plant response rating, Foxtail, Giant (giant foxtail [3]; [5]): 30
- Plant response rating, Foxtail, Giant (giant foxtail [3]; [6]): 90
- Plant response rating, Morningglory (morningglory; [5]): 10
- Plant response rating, Morningglory (morningglory; [6]): 70
- Plant response rating, Pigweed (pigweed; [5]): 90
- Plant response rating, Pigweed (pigweed; [6]): 100
- Plant response rating, Ducksalad (Heteranthera limosa): 90

Compound: FCc1cccc(Oc2ncc(Cl)cn2)c1-n1cc(Cl)cn1 [Compound 250]
- Plant response rating, Foxtail, Giant (giant foxtail [1]; 31 g ai/ha, 0 to 100 scale where 0 is no effect and 100 is complete control, visual, approximately 10 days): 30
- Foxtail, Giant plant response rating (0 to 100 scale) (giant foxtail [1]; 125 g ai/ha): 100
- Plant response rating, Barnyardgrass (barnyardgrass [2]; [7]): 10
- Plant response rating, Barnyardgrass (barnyardgrass [2]; [8]): 60
- Plant response rating, Foxtail, Giant (giant foxtail [3]; [7]): 10
- Plant response rating, Foxtail, Giant (giant foxtail [3]; [8]): 80
- Plant response rating, Pigweed (pigweed; [7]): 60
- Plant response rating, Pigweed (pigweed; [8]): 90
- Plant response rating, Ducksalad (Heteranthera limosa): 70
- Blackgrass plant response rating (blackgrass; [9]): 0
- Blackgrass plant response rating (blackgrass; [10]): 90
- Plant response rating, Blackgrass (blackgrass; [11]): 70
- Ryegrass, Italian plant response rating (Italian ryegrass; [9]): 0
- Ryegrass, Italian plant response rating (Italian ryegrass; [10]): 15
- Plant response rating, Ryegrass, Italian (Italian ryegrass; [11]): 5
- Wheat plant response rating (wheat, winter; [9]): 0
- Wheat plant response rating (wheat, winter; [10]): 0
- Plant response rating, Wheat (wheat, winter; [11]): 0
- Lambsquarters plant response rating (lambsquarters; [9]): 90
- Lambsquarters plant response rating (lambsquarters; [10]): 100
- Plant response rating, Lambsquarters (lambsquarters; [11]): 100
- Barnyardgrass plant response rating (barnyardgrass [4]; [9]): 5
- Barnyardgrass plant response rating (barnyardgrass [4]; [10]): 100
- Plant response rating, Barnyardgrass (barnyardgrass [4]; [11]): 50
- Velvetleaf plant response rating (velvetleaf; [9]): 100
- Velvetleaf plant response rating (velvetleaf; [10]): 100
- Plant response rating, Velvetleaf (velvetleaf; [11]): 100
